Common to all, as to assay: ≥ marks a high value that may be exact or a test limit, other limits are often not marked, values filed in µg/mL are converted to µM
Experiment [1] has as its system Klebsiella pneumoniae ATCC 13883.
The test system of experiment [2] is Acinetobacter baumannii ATCC 19606.
The test system of experiment [3] is Staphylococcus aureus ATCC 29213.
The test system of experiment [4] is Escherichia coli ATCC 25922.
In experiment [5] the test system is Pseudomonas aeruginosa ATCC 27853.
The subject of experiment [6] is Pseudomonas aeruginosa ATCC 9027.
Experiment [7] has as its system Staphylococcus aureus ATCC 6538.
Experiment [8] deals with Staphylococcus aureus NCTC 8325.
The test system of experiment [9] is Staphylococcus aureus ATCC 25923.
For the next experiment, the system named is Escherichia coli UB1005.
Experiment [10] deals with Pseudomonas aeruginosa PAO1.

The source of these data is DBAASP.

The MIC is the lowest concentration found to suppress growth. Read a low MIC as inhibition by little substance.

Converted amounts (≈) assume the structure as drawn. “And” between values parts separate entries of the source, which are not always exact repeats. Equal entries are not always repeated.

Take `CC[C@H](C)[C@@H]1NC(=O)[C@H](CO)NC(=O)[C@H](C(C)C)NC(=O)[C@H]([C@@H](C)O)NC(=O)[C@H](Cc2c[nH]c3ccccc23)NC(=O)[C@@H](NC(=O)CNC(=O)[C@H](CCCCN)NC(=O)[C@H](CCCCN)NC(=O)[C@H](C)NC(=O)[C@H](C)N)CSSC[C@@H](C(=O)N[C@@H](Cc2ccccc2)C(N)=O)NC(=O)[C@@H]2CCCN2C(=O)[C@H](CCCCN)NC(=O)[C@@H]2CCCN2C(=O)[C@@H]2CCCN2C1=O` [AAKKGCWTVSIPPKPCF]: the MIC in experiment [1] is 8 µM (≈ 14.6 µg/mL); in experiment [2], 16 µM (≈ 29.3 µg/mL); in experiment [3], 16 µM (≈ 29.3 µg/mL); in experiment [4], 22.6 µM (≈ 41.4 µg/mL); in experiment [5], 32 µM (≈ 58.6 µg/mL).
In the case of `CC(C)C[C@H](NC(=O)[C@H](C)NC(=O)[C@H](CCCCN)NC(=O)[C@H](CCCCN)NC(=O)[C@H](CC(C)C)NC(=O)[C@H](C)NC(=O)[C@H](CCCCN)NC(=O)[C@H](CC(C)C)NC(=O)[C@H](C)NC(=O)[C@H](CCCCN)NC(=O)[C@H](CCCCN)NC(=O)[C@H](CC(C)C)NC(=O)[C@H](C)NC(=O)[C@H](CC(C)C)NC(=O)[C@H](C)NC(=O)[C@@H](N)Cc1ccccc1)C(N)=O` [FALALKKALKALKKAL], the MIC was determined as 28.9 µM (≈ 50 µg/mL) in [6] and 2.89 µM (≈ 5 µg/mL) in experiment [7].
As for `CC[C@H](C)[C@H](NC(=O)[C@H](CCCCN)NC(=O)[C@H](CS)NC(=O)[C@H](Cc1ccccc1)NC(=O)[C@@H](NC(=O)CNC(=O)[C@@H](NC(=O)[C@@H]1CCCN1C(=O)[C@H](Cc1ccccc1)NC(=O)[C@@H](N)Cc1ccccc1)[C@@H](C)CC)C(C)C)C(=O)N[C@@H](Cc1ccccc1)C(=O)N[C@@H](CCCCN)C(=O)N[C@H](C(=O)N[C@@H](CS)C(=O)O)[C@@H](C)O` [FFPIGVFCKIFKTC], the MIC in [4] is 30 µM (≈ 49.5 µg/mL); in experiment [8], at least 100 µM.
`CC[C@H](C)[C@H](NC(=O)[C@H](CC(C)C)NC(=O)[C@H](CO)NC(=O)[C@H](C)NC(=O)[C@H](Cc1ccccc1)NC(=O)[C@H](CC(C)C)NC(=O)[C@@H]1CCCN1C(=O)[C@H](CC(C)C)NC(=O)[C@@H](N)Cc1ccccc1)C(=O)NCC(=O)N[C@@H](CCCCN)C(=O)N[C@@H](CC(C)C)C(=O)N[C@@H](CC(C)C)C(N)=O` [FLPLFASLIGKLL] showed an MIC in experiment [8] of at least 140 µM.
Consider `CSCC[C@H](NC(=O)[C@H](CC(C)C)NC(=O)[C@H](CO)NC(=O)CNC(=O)[C@H](C)NC(=O)[C@@H](NC(=O)[C@H](CC(N)=O)NC(=O)[C@H](CCCCN)NC(=O)[C@H](CC(C)C)NC(=O)[C@@H](NC(=O)[C@H](CC(N)=O)NC(=O)[C@H](CCCCN)NC(=O)CNC(=O)[C@@H](NC(=O)[C@H](CCCCN)NC(=O)[C@H](CCCCN)NC(=O)[C@H](Cc1ccccc1)NC(=O)[C@H](C)NC(=O)[C@H](CO)NC(=O)[C@H](Cc1ccccc1)NC(=O)[C@H](CC(C)C)NC(=O)CN)C(C)C)C(C)C)C(C)C)C(=O)N[C@@H](CC(=O)O)C(=O)N[C@@H](CC(N)=O)C(=O)N[C@@H](CC(C)C)C(=O)N[C@@H](CCCCN)C(=O)N[C@H]1CSSC[C@@H](C(=O)O)NC(=O)[C@H](CCC(=O)O)NC(=O)CNC(=O)[C@H](CO)NC(=O)[C@H](C(C)C)NC(=O)[C@H](CCCCN)NC1=O` [GLFSAFKKVGKNVLKNVAGSLMDNLKCKVSGEC], for which the figures for the minimum inhibitory concentration (MIC) in [4] and in [8] were 3 µM (≈ 10.5 µg/mL) and at least 50 µM, respectively.
For `CC[C@H](C)[C@H](NC(=O)CNC(=O)[C@H](CCC(N)=O)NC(=O)[C@H](Cc1ccccc1)NC(=O)[C@@H](NC(=O)[C@H](CCCCN)NC(=O)[C@H](CCCCN)NC(=O)[C@H](CC(C)C)NC(=O)[C@H](C)NC(=O)[C@H](CCCCN)NC(=O)[C@H](CC(C)C)NC(=O)CN)C(C)C)C(=O)N[C@@H](Cc1cnc[nH]1)C(=O)N[C@@H](CCC(=O)O)C(=O)N[C@@H](C)C(=O)N[C@H](C(=O)N[C@@H](CCCCN)C(=O)N[C@@H](CC(C)C)C(=O)N[C@H](C(=O)N[C@@H](CC(N)=O)C(=O)N[C@@H](CC(N)=O)C(=O)N[C@@H](Cc1cnc[nH]1)C(=O)N[C@H](C(=O)N[C@@H](CCC(N)=O)C(=O)O)C(C)C)[C@@H](C)CC)[C@@H](C)CC` [GLKALKKVFQGIHEAIKLINNHVQ], the MIC in experiment [4] was 10 µM (≈ 27 µg/mL); in experiment [8], at least 80 µM.
As for `CC[C@H](C)[C@H](NC(=O)CNC(=O)[C@H](CCC(N)=O)NC(=O)[C@H](Cc1ccccc1)NC(=O)[C@@H](NC(=O)[C@H](CCCCN)NC(=O)[C@H](CCCCN)NC(=O)[C@H](CC(C)C)NC(=O)[C@H](C)NC(=O)[C@H](CC(N)=O)NC(=O)[C@H](CC(C)C)NC(=O)CN)C(C)C)C(=O)N[C@@H](Cc1cnc[nH]1)C(=O)N[C@@H](CCC(=O)O)C(=O)N[C@@H](C)C(=O)N[C@@H](Cc1ccccc1)C(=O)N[C@@H](CCCCN)C(=O)N[C@@H](CC(C)C)C(=O)N[C@H](C(=O)N[C@@H](CC(N)=O)C(=O)N[C@@H](CC(N)=O)C(=O)N[C@@H](Cc1cnc[nH]1)C(=O)N[C@H](C(=O)N[C@@H](CCC(N)=O)C(=O)O)C(C)C)[C@@H](C)CC` [GLNALKKVFQGIHEAFKLINNHVQ], the MIC is 20 µM (≈ 54.4 µg/mL) in experiment [4] and at least 160 µM in [8].
As to `CC[C@H](C)[C@H](NC(=O)CNC(=O)[C@H](CCC(N)=O)NC(=O)[C@H](Cc1ccccc1)NC(=O)[C@@H](NC(=O)[C@H](CCCCN)NC(=O)[C@H](CCCCN)NC(=O)[C@H](CC(C)C)NC(=O)[C@H](C)NC(=O)[C@H](CC(N)=O)NC(=O)[C@H](CC(C)C)NC(=O)CN)C(C)C)C(=O)N[C@@H](Cc1cnc[nH]1)C(=O)N[C@@H](CCC(=O)O)C(=O)N[C@@H](C)C(=O)N[C@H](C(=O)N[C@@H](CCCCN)C(=O)N[C@@H](CC(C)C)C(=O)N[C@@H](Cc1ccccc1)C(=O)N[C@@H](CC(N)=O)C(=O)N[C@@H](CC(N)=O)C(=O)N[C@@H](Cc1cnc[nH]1)C(=O)N[C@H](C(=O)N[C@@H](CCC(N)=O)C(=O)O)C(C)C)[C@@H](C)CC` [GLNALKKVFQGIHEAIKLFNNHVQ], the values for the MIC in [4] and in experiment [8] were 10 µM (≈ 27.2 µg/mL) and at least 160 µM, respectively.
`CC(C)C[C@H](NC(=O)CNC(=O)[C@@H](NC(=O)[C@@H]1CCCN1C(=O)[C@H](CC(C)C)NC(=O)CNC(=O)[C@H](CC(N)=O)NC(=O)[C@H](CC(N)=O)NC(=O)[C@H](Cc1ccc(O)cc1)NC(=O)[C@@H](NC(=O)[C@H](CCCN=C(N)N)NC(=O)[C@H](CS)NC(=O)[C@H](CCCN=C(N)N)NC(=O)[C@H](Cc1cnc[nH]1)NC(=O)[C@@H](N)CCCCN)C(C)C)[C@@H](C)O)C(=O)N[C@@H](Cc1ccc(O)cc1)C(=O)N[C@@H](CCCN=C(N)N)C(=O)N[C@@H](Cc1c[nH]c2ccccc12)C(=O)N[C@@H](CS)C(N)=O` [KHRCRVYNNGLPTGLYRWC] showed a minimum inhibitory concentration (MIC) in experiment [7] of 4.8 µM (≈ 11.2 µg/mL).
For `CC(C)C[C@H](NC(=O)[C@H](CCCN=C(N)N)NC(=O)[C@H](CCCN=C(N)N)NC(=O)[C@H](C)NC(=O)[C@H](Cc1c[nH]c2ccccc12)NC(=O)CNC(=O)[C@H](CCCN=C(N)N)NC(=O)[C@@H](N)CCCN=C(N)N)C(=O)N[C@@H](C)C(=O)N[C@@H](Cc1ccccc1)C(=O)N[C@@H](C)C(=O)N[C@@H](Cc1ccccc1)C(=O)NCC(=O)N[C@@H](CCCN=C(N)N)C(=O)N[C@@H](CCCN=C(N)N)C(N)=O` [RRGWARRLAFAFGRR], the MIC in experiment [1] is 30 µM (≈ 56.3 µg/mL); in experiment [2] it was 13.8 µM and 22 µM; in experiment [9] it was over 30 µM; in experiment [4], 12.5 µM and 30 µM.
Take `CC(C)C[C@H](NC(=O)[C@H](C)NC(=O)[C@H](CCCCN)NC(=O)[C@H](CCCCN)NC(=O)[C@H](CC(C)C)NC(=O)[C@H](C)NC(=O)[C@H](CCCCN)NC(=O)[C@H](CCCCN)NC(=O)[C@H](CC(C)C)NC(=O)[C@H](CCCCN)NC(=O)[C@H](CCCCN)NC(=O)[C@H](CC(C)C)NC(=O)[C@H](C)NC(=O)[C@H](CCCCN)NC(=O)[C@H](CCCCN)NC(=O)[C@H](CC(C)C)NC(=O)[C@H](C)NC(=O)[C@H](CCCCN)NC(=O)[C@H](CC(C)C)NC(=O)[C@H](C)NC(=O)[C@H](CC(C)C)NC(=O)[C@H](C)NC(=O)[C@@H](N)C(C)C)C(N)=O` [VALALKALKKALKKLKKALKKAL]: the MIC in [6] and in experiment [7] was over 80.3 µM each time.
`CC(C)C[C@H](NC(=O)[C@H](Cc1ccc(O)cc1)NC(=O)[C@@H]1CCCN1C(=O)[C@@H]1CCCN1C(=O)[C@H](CCCCN)NC(=O)[C@H](CC(=O)O)NC(=O)[C@@H](N)C(C)C)C(=O)N1CCC[C@H]1C(=O)N[C@@H](CCCN=C(N)N)C(=O)N1CCC[C@H]1C(=O)N[C@@H](CCCN=C(N)N)C(=O)N1CCC[C@H]1C(=O)N1CCC[C@H]1C(=O)N[C@@H](CCCN=C(N)N)C(=O)N[C@@H](CCCN=C(N)N)C(=O)N[C@@H](CCCCN)C(=O)N[C@@H](Cc1ccc(O)cc1)C(=O)N[C@@H](CC(N)=O)C(=O)N[C@@H](CCCN=C(N)N)C(N)=O` [VDKPPYLPRPRPPRRKYNR]: the MIC was found to be 1.04 µM (≈ 2.5 µg/mL) with Escherichia coli UB1005, 13.3 µM (≈ 32 µg/mL) in experiment [9] and 26.6 µM (≈ 64 µg/mL) in experiment [10].
